Test system: TRIM24-MET-i cells
Conditions: GSEA, v. DMSO
Method: The number of unique and shared differentially expressed genes between each comparison are shown in parentheses. A linear regression line is depicted along with Pearson’s correlation coefficient (r) and its associated p-value. […] Common negatively enriched genesets between all three comparisons are in bold. c, Heatmaps showing expression of Hallmark_Myc_Target_v1/2 genes for indicated cells and treatment comparisons (TRIM-MET cells were treated in vitro, TFG-MET cells in vivo). Select leading edge genes from GSEA are labeled.

## C[C@@H](Oc1cc(-c2cnn(C3CCNCC3)c2)cnc1N)c1c(Cl)ccc(F)c1Cl [Crizotinib]
  ES GOCC_MITOCHONDRIAL_ENVELOPE: -0.5203
  ES GOCC_ORGANELLE_INNER_MEMBRANE: -0.5635
  ES GOCC_PRERIBOSOME: -0.8837
  ES GOCC_RIBONUCLEOPROTEIN_COMPLEX: -0.6028
  ES GOCC_RIBOSOME: -0.6378
  ES GOMF_STRUCTURAL_CONSTITUENT_OF_RIBOSOME: -0.6065
  ES HALLMARK_ADIPOGENESIS: -0.3925
  ES HALLMARK_ALLOGRAFT_REJECTION: -0.3891
  ES HALLMARK_ANDROGEN_RESPONSE: -0.4501
  ES HALLMARK_ANGIOGENESIS: -0.5001
  ES HALLMARK_APICAL_JUNCTION: -0.2207
  ES HALLMARK_APICAL_SURFACE: 0.438
  ES HALLMARK_APOPTOSIS: -0.353
  ES HALLMARK_CHOLESTEROL_HOMEOSTASIS: -0.4271
  ES HALLMARK_COAGULATION: -0.3066
  ES HALLMARK_COMPLEMENT: -0.2741
  ES HALLMARK_DNA_REPAIR: -0.3968
  ES HALLMARK_E2F_TARGETS: -0.4061
  ES HALLMARK_EPITHELIAL_MESENCHYMAL_TRANSITION: -0.2384
  ES HALLMARK_ESTROGEN_RESPONSE_EARLY: -0.4462
  ES HALLMARK_ESTROGEN_RESPONSE_LATE: -0.2995
  ES HALLMARK_G2M_CHECKPOINT: -0.4157
  ES HALLMARK_GLYCOLYSIS: -0.4578
  ES HALLMARK_HEDGEHOG_SIGNALING: -0.4357
  ES HALLMARK_HYPOXIA: -0.2949
  ES HALLMARK_IL2_STAT5_SIGNALING: -0.5104
  ES HALLMARK_IL6_JAK_STAT3_SIGNALING: -0.3352
  ES HALLMARK_INFLAMMATORY_RESPONSE: -0.4227
  ES HALLMARK_INTERFERON_ALPHA_RESPONSE: 0.333
  ES HALLMARK_INTERFERON_GAMMA_RESPONSE: -0.2664
  ES HALLMARK_KRAS_SIGNALING_DN: 0.421
  ES HALLMARK_KRAS_SIGNALING_UP: -0.3522
  ES HALLMARK_MITOTIC_SPINDLE: 0.3203
  ES HALLMARK_MTORC1_SIGNALING: -0.615
  ES HALLMARK_MYC_TARGETS_V1: -0.7224
  ES HALLMARK_MYC_TARGETS_V2: -0.8712
  ES HALLMARK_MYOGENESIS: 0.2133
  ES HALLMARK_NOTCH_SIGNALING: -0.3408
  ES HALLMARK_OXIDATIVE_PHOSPHORYLATION: -0.5351
  ES HALLMARK_P53_PATHWAY: -0.3345
  ES HALLMARK_PANCREAS_BETA_CELLS: 0.2531
  ES HALLMARK_PEROXISOME: -0.2701
  ES HALLMARK_PI3K_AKT_MTOR_SIGNALING: -0.3822
  ES HALLMARK_PROTEIN_SECRETION: -0.253
  ES HALLMARK_TGF_BETA_SIGNALING: -0.4216
  ES HALLMARK_TNFA_SIGNALING_VIA_NFKB: -0.4566
  ES HALLMARK_UNFOLDED_PROTEIN_RESPONSE: -0.6894
  ES HALLMARK_UV_RESPONSE_DN: 0.2824
  ES HALLMARK_UV_RESPONSE_UP: -0.4491
  ES HALLMARK_WNT_BETA_CATENIN_SIGNALING: -0.3428
  ES KRIGE_RESPONSE_TO_TOSEDOSTAT_6HR_DN: -0.7282
  ES KRIGE_RESPONSE_TO_TOSEDOSTAT_24HR_DN: -0.7493
  ES LEE_BMP2_TARGETS_DN: -0.726
  ES PUJANA_CHEK2_PCC_NETWORK: -0.6234
  ES WEI_MYCN_TARGETS_WITH_E_BOX: -0.7486
  NES GOBP_NCRNA_PROCESSING: -2.807
  NES GOBP_RIBONUCLEOPROTEIN_COMPLEX_BIOGENESIS: -2.6966
  NES GOBP_RIBOSOME_BIOGENESIS: -2.885
  NES GOCC_MITOCHONDRIAL_ENVELOPE: -1.997
  NES GOCC_ORGANELLE_INNER_MEMBRANE: -2.127
  NES GOCC_PRERIBOSOME: -2.754
  NES GOCC_RIBONUCLEOPROTEIN_COMPLEX: -2.312
  NES GOCC_RIBOSOME: -2.274
  NES GOMF_STRUCTURAL_CONSTITUENT_OF_RIBOSOME: -2.105
  NES HALLMARK_ADIPOGENESIS: -1.373
  NES HALLMARK_ALLOGRAFT_REJECTION: -1.343
  NES HALLMARK_ANDROGEN_RESPONSE: -1.464
  NES HALLMARK_ANGIOGENESIS: -1.355
  NES HALLMARK_APICAL_JUNCTION: -0.7717
  NES HALLMARK_APICAL_SURFACE: 1.391
  NES HALLMARK_APOPTOSIS: -1.211
  NES HALLMARK_CHOLESTEROL_HOMEOSTASIS: -1.341
  NES HALLMARK_COMPLEMENT: -0.9577
  NES HALLMARK_DNA_REPAIR: -1.352
  NES HALLMARK_E2F_TARGETS: -1.43
  NES HALLMARK_EPITHELIAL_MESENCHYMAL_TRANSITION: -0.8343
  NES HALLMARK_ESTROGEN_RESPONSE_EARLY: -1.563
  NES HALLMARK_ESTROGEN_RESPONSE_LATE: -1.046
  NES HALLMARK_G2M_CHECKPOINT: -1.457
  NES HALLMARK_GLYCOLYSIS: -1.603
  NES HALLMARK_HEDGEHOG_SIGNALING: -1.2
  NES HALLMARK_HYPOXIA: -1.03
  NES HALLMARK_IL2_STAT5_SIGNALING: -1.788
  NES HALLMARK_IL6_JAK_STAT3_SIGNALING: -1.065
  NES HALLMARK_INFLAMMATORY_RESPONSE: -1.474
  NES HALLMARK_INTERFERON_ALPHA_RESPONSE: 1.217
  NES HALLMARK_INTERFERON_GAMMA_RESPONSE: -0.9329
  NES HALLMARK_KRAS_SIGNALING_DN: 1.674
  NES HALLMARK_KRAS_SIGNALING_UP: -1.231
  NES HALLMARK_MITOTIC_SPINDLE: 1.318
  NES HALLMARK_MTORC1_SIGNALING: -2.165
  NES HALLMARK_MYC_TARGETS_V1: -2.537
  NES HALLMARK_MYC_TARGETS_V2: -2.6498
  NES HALLMARK_MYOGENESIS: 0.8749
  NES HALLMARK_NOTCH_SIGNALING: -0.9083
  NES HALLMARK_OXIDATIVE_PHOSPHORYLATION: -1.871
  NES HALLMARK_P53_PATHWAY: -1.1707
  NES HALLMARK_PANCREAS_BETA_CELLS: 0.7398
  NES HALLMARK_PEROXISOME: -0.8785
  NES HALLMARK_PI3K_AKT_MTOR_SIGNALING: -1.243
  NES HALLMARK_PROTEIN_SECRETION: -0.8206
  NES HALLMARK_TGF_BETA_SIGNALING: -1.271
  NES HALLMARK_TNFA_SIGNALING_VIA_NFKB: -1.6076
  NES HALLMARK_UNFOLDED_PROTEIN_RESPONSE: -2.272
  NES HALLMARK_UV_RESPONSE_DN: 1.115
  NES HALLMARK_UV_RESPONSE_UP: -1.536
  NES HALLMARK_WNT_BETA_CATENIN_SIGNALING: -0.9746
  NES KRIGE_RESPONSE_TO_TOSEDOSTAT_6HR_DN: -2.811
  NES KRIGE_RESPONSE_TO_TOSEDOSTAT_24HR_DN: -2.908
  NES LEE_BMP2_TARGETS_DN: -2.799
  NES PUJANA_CHEK2_PCC_NETWORK: -2.394
  NES WEI_MYCN_TARGETS_WITH_E_BOX: -2.882

— paper PMC11157767 (Molecular Cancer, 2024)
